From ChEMBL document CHEMBL3817752, “Antimycobacterial activity of new N(1)-[1-[1-aryl-3-[4-(1H-imidazol-1-yl)phenyl]-3-oxo]propyl]-pyridine-2-carboxamidrazone derivatives” (Bioorg Med Chem Lett, 2016) come the findings set out here.

In data set [1] the test system is Mycobacterium gordonae. As to the kind of experiment: Antimycobacterial activity against Mycobacterium gordonae NCTC 10267 after 7 days by resazurin microtiter assay. The settings on record: NCTC 10267, 168 h. It is filed as functional.
Data set [2] deals with Mycobacterium scrofulaceum. As to the kind of experiment: Antimycobacterial activity against Mycobacterium scrofulaceum NCTC 10803 after 7 days by resazurin microtiter assay. The class given is functional. The settings on record: 168 h. Background: Resazurin is reduced to fluorescent resorufin, in cell work by metabolically active cells.
Data set [3] deals with Mycobacterium kansasii. As to the kind of experiment: Antimycobacterial activity against Mycobacterium kansasii NCTC 10268 after 7 days by resazurin microtiter assay. The class given is functional. The settings on record: NCTC 10268, 168 h.
Data set [4] relates to Mycobacterium marinum. As to the kind of experiment: Antimycobacterial activity against Mycobacterium marinum CIP 6423 after 7 days by resazurin microtiter assay. The class given is functional. The settings on record: CIP 6423, 168 h.
In data set [5] the test system is Mycobacterium avium. As to the kind of experiment: Antimycobacterial activity against Mycobacterium avium NCTC 08559 after 7 days by resazurin microtiter assay. The class given is functional. The settings on record: NCTC 08559, 168 h.
The nature of data set [6]: Cytotoxicity against African green monkey Vero cells after 72 hrs by MTT assay. The class given is cell-based. The settings on record: chlorocebus sabaeus. On the technique in general: Tetrazolium dyes change colour on reduction, which living cells bring about.
For data set [7], the target named is T1, Sterol 14alpha-demethylase (Mycobacterium tuberculosis) (UniProt P9WPP9).
T1 sequence (whole entry): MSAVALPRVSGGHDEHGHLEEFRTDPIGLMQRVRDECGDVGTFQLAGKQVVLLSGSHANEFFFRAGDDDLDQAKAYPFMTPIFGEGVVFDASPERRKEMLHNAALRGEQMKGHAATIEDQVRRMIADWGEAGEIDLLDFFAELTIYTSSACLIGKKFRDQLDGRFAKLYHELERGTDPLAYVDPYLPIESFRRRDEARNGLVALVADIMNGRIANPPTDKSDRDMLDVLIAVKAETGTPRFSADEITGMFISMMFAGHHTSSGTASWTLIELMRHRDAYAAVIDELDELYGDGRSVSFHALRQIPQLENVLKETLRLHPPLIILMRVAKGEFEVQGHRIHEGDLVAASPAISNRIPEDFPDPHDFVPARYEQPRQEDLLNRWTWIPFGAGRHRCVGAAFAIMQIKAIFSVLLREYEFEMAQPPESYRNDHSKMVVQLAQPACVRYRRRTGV
As to the kind of experiment: Binding affinity to N-terminal His-tagged Mycobacterium tuberculosis H37Rv ATCC 25618 CYP51 expressed in Escherichia coli Rosetta (DE3) by spectrophotometric analysis.

The subject of data set [8] is Staphylococcus aureus. As to the kind of experiment: Antimicrobial activity against Staphylococcus aureus ATCC 25923 at 20 ug per disk after 18 to 24 hrs by agar diffusion assay. The class given is functional. The settings on record: read-out: DIZ.
In data set [9] the test system is Escherichia coli. As to the kind of experiment: Antimicrobial activity against Escherichia coli ATCC 25922 at 20 ug per disk after 18 to 24 hrs by agar diffusion assay. The class given is functional. The settings on record: read-out: DIZ. A general note: In agar diffusion tests the substance spreads into inoculated agar from a disc or well.
Data set [10] concerns Candida albicans. As to the kind of experiment: Antimicrobial activity against Candida albicans 685 clinical isolate at 20 ug per disk after 18 to 24 hrs by agar diffusion assay. The class given is functional. The settings on record: read-out: DIZ.
Data set [11] concerns Mycobacterium tuberculosis. As to the kind of experiment: Antimycobacterial activity against Mycobacterium tuberculosis H37Ra […] after 7 days by resazurin microtiter assay. The class given is functional. The settings on record: 168 h.
Data set [12] deals with Mycobacterium intracellulare. As to the kind of experiment: Antimycobacterial activity against Mycobacterium intracellulare NCTC 10425 after 7 days by resazurin microtiter assay. It is filed as functional. The settings on record: NCTC 10425, 168 h.

Structures are written as SMILES. Values after ≈ are worked out from the molar mass of the structure shown. Active and inactive are the calls of the source.

Turning to `N/C(=N/NC(CC(=O)c1ccc(-n2ccnc2)cc1)c1cccc(Br)c1)c1ccccn1` (stereo not given), the MIC (as a rule, the smallest concentration in the dilution series that meets the test's criterion for growth inhibition) came out at 2 µM (≈ 0.979 µg/mL) in [1]; 32.7 µM (≈ 16 µg/mL) in [2]; 16.3 µM (≈ 7.98 µg/mL) in data set [3]; 16.3 µM (≈ 7.98 µg/mL) in [4]; 131 µM (≈ 64.1 µg/mL) in [5]; 16.3 µM (≈ 7.98 µg/mL) in data set [11]. The molecule further gave an MIC in [12] of 131 µM (≈ 64.1 µg/mL). It took 51.3 µM to reach half-maximal cytotoxicity in data set [6] (CC50 at 72 h). The outcome in data set [7] was inactive. The zone of inhibition at 20 µg/disc in data set [8] amounted to 19 mm; in data set [9], 8 mm; in data set [10], 13 mm.
In the case of `N/C(=N/NC(CC(=O)c1ccc(-n2ccnc2)cc1)c1cccc([N+](=O)[O-])c1)c1ccccn1` (stereo not given), the MIC in data set [1] is 8.8 µM (≈ 4.01 µg/mL); in [2], 8.8 µM (≈ 4.01 µg/mL); in data set [3] it was 8.8 µM (≈ 4.01 µg/mL); in data set [4], 35.1 µM (≈ 16 µg/mL); in data set [5], 140 µM (≈ 63.8 µg/mL); in data set [11], 4.4 µM (≈ 2 µg/mL). For the same molecule, the MIC in data set [12] is above 140 µM. For the same molecule, the 50% cytotoxic concentration (CC50) (as a rule, the concentration giving 50% cytotoxicity) at 72 h in [6] came to 28.7 µM. Also, the result in data set [7] was inactive. Also, the zone of inhibition at 20 µg/disc was 13 mm in data set [8], 5 mm in data set [9] and 10 mm in [10].
In the case of `N/C(=N/NC(CC(=O)c1ccc(-n2ccnc2)cc1)c1ccccc1Cl)c1ccccn1` (stereo not given), the MIC was found to be 18 µM (≈ 8.01 µg/mL) in data set [1]; 18 µM (≈ 8.01 µg/mL) in data set [2]; 18 µM (≈ 8.01 µg/mL) in data set [3]; 18 µM (≈ 8.01 µg/mL) in [4]; 72 µM (≈ 32 µg/mL) in data set [5]; 36 µM (≈ 16 µg/mL) in [11]. The same molecule had an MIC in [12] of 144 µM (≈ 64.1 µg/mL). This molecule also had a half-maximal cytotoxic concentration (CC50) at 72 h in data set [6] of 53.2 µM. The outcome in [7] was inactive. Further, the zone of inhibition at 20 µg/disc came out at 20 mm in data set [8], 6 mm in data set [9] and 7 mm in data set [10].
Consider `N/C(=N/NC(CC(=O)c1ccc(-n2ccnc2)cc1)c1ccc(F)cc1)c1ccccn1` (stereo not given), for which the MIC in [1] was 18.7 µM (≈ 8.01 µg/mL); in data set [2], 18.7 µM (≈ 8.01 µg/mL); in [3], 9.3 µM (≈ 3.98 µg/mL); in data set [4], 18.7 µM (≈ 8.01 µg/mL); in [5], 74.7 µM (≈ 32 µg/mL); in data set [11] it was 9.3 µM (≈ 3.98 µg/mL). In [12], this molecule yielded a minimal inhibitory concentration (MIC) of 74.7 µM (≈ 32 µg/mL). For the same molecule, the CC50 at 72 h in [6] was determined as 78.8 µM. The result in [7] was inactive. For the same molecule, the zone of inhibition at 20 µg/disc in [8] turned out to be 20 mm; in [9] it was 6 mm; in data set [10] it was 6 mm.
With `N/C(=N/NC(CC(=O)c1ccc(-n2ccnc2)cc1)c1ccccc1Br)c1ccccn1` (stereo not given), the MIC in data set [1] was 8.2 µM (≈ 4.01 µg/mL); in data set [2], 16.3 µM (≈ 7.98 µg/mL); in data set [3], 16.3 µM (≈ 7.98 µg/mL); in data set [4], 16.3 µM (≈ 7.98 µg/mL); in [5] it was 65.4 µM (≈ 32 µg/mL); in data set [11], 32.7 µM (≈ 16 µg/mL). The MIC in data set [12] was determined as 131 µM (≈ 64.1 µg/mL). Besides, in data set [6], the midpoint of cytotoxicity, the CC50 at 72 h, lay at 29 µM. The result in data set [7] was inactive. Moreover, the zone of inhibition at 20 µg/disc stood at 19 mm in [8], 5 mm in data set [9] and 8 mm in data set [10].
With `Clc1ccc(COC(Cn2ccnc2)c2ccc(Cl)cc2Cl)cc1` (stereo not given), the result in [7] was Active.
As to `N/C(=N/NC(CC(=O)c1ccc(-n2ccnc2)cc1)c1ccc(Cl)cc1)c1ccccn1` (stereo not given), the MIC in data set [1] stood at 4.5 µM (≈ 2 µg/mL); in data set [2], 18 µM (≈ 8.01 µg/mL); in [3], 9 µM (≈ 4 µg/mL); in data set [4], 18 µM (≈ 8.01 µg/mL); in [5], 72 µM (≈ 32 µg/mL); in data set [11], 9 µM (≈ 4 µg/mL). In [12], this molecule showed an MIC of 72 µM (≈ 32 µg/mL). This molecule displayed a CC50 at 72 h in data set [6] of 78.8 µM. The outcome in [7] was inactive. Also, the zone of inhibition at 20 µg/disc in data set [8] came out at 20 mm; in [9], 8 mm; in [10], 9 mm.
On to `NNC(=O)c1ccncc1` [ISONIAZID], for which the minimal inhibitory concentration (MIC) was 116 µM (≈ 15.9 µg/mL) in [1]; 116 µM (≈ 15.9 µg/mL) in [2]; 116 µM (≈ 15.9 µg/mL) in data set [4]; 116 µM (≈ 15.9 µg/mL) in data set [5]; 0.9 µM (≈ 0.123 µg/mL) in data set [11]; above 467 µM in data set [12]. This molecule returned a CC50 at 72 h in data set [6] above 7000 µM.
